Experimental findings from US6653478B2, “Substituted benzimidazol-2-ones as vasopressin receptor antagonists and neuropeptide Y modulators” (Ortho-McNeil Pharmaceutical, Inc., priority 2000, dated 2003) are described below.

One assay deals with T1, human V1b receptor (Homo sapiens, UniProt P47901).
T1 sequence (P47901 1-424): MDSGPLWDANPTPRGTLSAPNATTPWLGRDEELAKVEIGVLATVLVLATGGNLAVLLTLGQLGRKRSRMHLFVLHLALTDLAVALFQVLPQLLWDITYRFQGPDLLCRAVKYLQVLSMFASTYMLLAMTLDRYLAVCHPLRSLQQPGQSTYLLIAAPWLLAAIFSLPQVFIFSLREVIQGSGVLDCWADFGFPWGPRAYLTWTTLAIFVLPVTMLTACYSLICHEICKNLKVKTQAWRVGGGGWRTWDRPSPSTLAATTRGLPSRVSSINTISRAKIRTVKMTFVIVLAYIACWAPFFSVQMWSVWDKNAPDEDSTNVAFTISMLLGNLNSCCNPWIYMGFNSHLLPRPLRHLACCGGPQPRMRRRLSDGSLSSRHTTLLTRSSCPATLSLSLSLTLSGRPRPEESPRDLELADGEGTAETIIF
Briefly: V1b binding assay (3H-AVP displacement, HEK-293 membranes). Also noted: expressed in transfected cells; host or cells: HEK-293 (membranes). Conditions: for inhibition at 10 µM: read-out: V1b % Inh @10; for inhibition at 1 µM: 1.0 μM compound, read-out: V1b@1.0, % Inh. The procedure: (§1) V1a, V1b or V2 Binding Assay
(§2) Receptor binding studies were performed using recombinant human V1a, V1b or V2 receptors. Cellular membranes were harvested from HEK-293 cells transfected to express either the V1a, V1b or V2 receptors. Compounds were evaluated for their ability to displace ^3H-arginine vasopressin (^3H-AVP; specific activity 40-87 Ci/mmol; NEN Life Sciences, Boston, Mass.). Compounds were solubilized in dimethylsulfoxide (DMSO) and diluted to working concentration of 10% DMSO with assay buffer (50 mM Tris, 5 mM MgCl2, 0.1% BSA, pH 7.5). Assay buffer was supplemented with several protease inhibitors (1 mM Pefabloc, 5 μg/ml aprotinin/leupeptin/pepstatin A, 50 μg/ml bacitracin; Sigma Chemical, St. Louis, Mo.). Non-specific binding was determined using 1.25 μM arginine vasopressin (AVP; Peninsula Labs, Belmont, Calif.). Assay reagents and test compounds were added to 96-well round bottom polypropylene plates (145 μl buffer, 5 μl compound in 10% DMSO, 25 μl buffer containing 10,000 cpm tracer, 25 μl cell membrane). After incubation for 1 hour at room temperature, the well contents were aspirated across a Unifilter GF/C plate (Packard Instrument, Downers Grove, Ill.) which had been presoaked in 0.3% polyethyleneimine to prevent peptide sticking. The wells were washed repeatedly with cold saline containing 0.05% Tween 20. The plate was then dried and 25 μl Microscint-20 cocktail (Packard Instruments) added to each well. The plates were sealed and counted on a TopCount scintillation counter (Packard Instruments) using quench correction.

The target of a further assay is T2, NPY2 receptors (Homo sapiens, UniProt P49146).
T2 construct: Cell Membranes from KAN-TS cells having NPY2 receptors; endogenous in cells; host or cells: KAN-TS cells (membranes)
T2 sequence (P49146 1-381): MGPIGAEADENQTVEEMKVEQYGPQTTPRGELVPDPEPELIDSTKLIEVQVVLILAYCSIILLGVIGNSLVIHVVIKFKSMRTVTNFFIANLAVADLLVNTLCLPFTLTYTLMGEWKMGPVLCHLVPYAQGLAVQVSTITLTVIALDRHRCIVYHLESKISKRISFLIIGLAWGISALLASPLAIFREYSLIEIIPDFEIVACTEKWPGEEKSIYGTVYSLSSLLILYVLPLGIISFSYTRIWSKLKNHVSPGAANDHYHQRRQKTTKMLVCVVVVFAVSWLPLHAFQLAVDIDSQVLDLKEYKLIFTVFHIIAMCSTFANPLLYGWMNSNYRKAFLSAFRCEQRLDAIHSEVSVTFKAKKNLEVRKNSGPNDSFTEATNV
Briefly: Neuropeptide Y receptor binding assay (125I-PYY, KAN-TS cell membranes). Conditions: 10 μM compound; for inhibition at 10 µM: read-out: NPY-2@10, % Inh. The procedure:
Neuropeptide Y Receptor Binding Assay
Load 96-well RIA racks with RIA vials (Sarstedt, cat. #73.1055)
Prepare membranes—use 2×15 cm confluent plates/96-well assay plate
Add 14 mls Homogenization buffer/cell pellet
Homogenize at high speed for 15 seconds
Transfer to 15 ml conical tube and spin 5′ at 4° C. at setting 3 in RT6000 centrifuge
Transfer supernatant to 30 ml Corex tube
Balance and spin 25′ at 15,000 rpm at 4° C.
Resuspend pellet in 10 mls Binding buffer
Homogenize at high speed for 15 sec.
Bring volume up to 50 mls in Binding buffer (25 mls/2×96-well plates)
Keep on ice until use or freeze in aliquots (2 plates/tube) in −70° C.
Prepare ^125I-PYY (for 2×96-well compound plates)
Dilute 50 uCi ^125I-PYY in 1 ml H2O
Add 0.4 ml 10% BSA to 20 ml Binding buffer
Add 150 μl ^125I-PYY, mix well
NSB (1 μM PYY final conc.): 40 μl PYY (100 μM stock)+60 μl 30% DMSO in HEPES=40 μM PYY—add 5 μl/well
Total Binding: Add 5 μl/well of Compound Diluent
Add 5 μl compound (final conc. @10 μM)
Incubate at R.T. for 1 hr.
Spin plates for 10′ at setting 9 in RT6000 centrifuge
Aspirate supernatant from tubes, add 300 μl PBS and aspirate again.
After plates are washed and aspirated, put individual tubes in 12×75 mm polypropylene carrier tubes. Count on gamma counter.

In a further assay the target is human V1a receptor (Homo sapiens, UniProt P37288). Briefly: V1a binding assay (3H-AVP displacement, HEK-293 membranes). Also on record: expressed in transfected cells; host or cells: HEK-293 (membranes). Conditions: for inhibition at 1 µM: read-out: V1a@1.0, % Inh. The procedure:
as §1, §2

The next assay has as its target human V2 receptor (Homo sapiens, UniProt P30518). Briefly: V2 binding assay (3H-AVP displacement, HEK-293 membranes). Also on record: expressed in transfected cells; host or cells: HEK-293 (membranes). Conditions: 1.0 μM compound; for inhibition at 1 µM: read-out: V2@1.0, % Inh. The procedure:
as §1, §2

Each structure is given as a SMILES string. pIC50: −log10 of the molar value.

Chain of human V2 receptor (P30518 whole entry): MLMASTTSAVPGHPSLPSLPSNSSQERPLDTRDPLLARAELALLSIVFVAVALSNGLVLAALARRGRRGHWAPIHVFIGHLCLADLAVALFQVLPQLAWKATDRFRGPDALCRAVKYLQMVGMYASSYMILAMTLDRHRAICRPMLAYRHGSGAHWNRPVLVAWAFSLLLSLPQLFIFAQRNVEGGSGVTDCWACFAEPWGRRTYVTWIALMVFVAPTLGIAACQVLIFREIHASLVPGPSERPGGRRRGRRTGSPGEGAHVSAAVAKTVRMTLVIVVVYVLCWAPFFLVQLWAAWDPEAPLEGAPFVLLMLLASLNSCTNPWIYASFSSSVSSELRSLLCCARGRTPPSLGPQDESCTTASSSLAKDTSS
Chain of human V1a receptor (P37288 whole entry): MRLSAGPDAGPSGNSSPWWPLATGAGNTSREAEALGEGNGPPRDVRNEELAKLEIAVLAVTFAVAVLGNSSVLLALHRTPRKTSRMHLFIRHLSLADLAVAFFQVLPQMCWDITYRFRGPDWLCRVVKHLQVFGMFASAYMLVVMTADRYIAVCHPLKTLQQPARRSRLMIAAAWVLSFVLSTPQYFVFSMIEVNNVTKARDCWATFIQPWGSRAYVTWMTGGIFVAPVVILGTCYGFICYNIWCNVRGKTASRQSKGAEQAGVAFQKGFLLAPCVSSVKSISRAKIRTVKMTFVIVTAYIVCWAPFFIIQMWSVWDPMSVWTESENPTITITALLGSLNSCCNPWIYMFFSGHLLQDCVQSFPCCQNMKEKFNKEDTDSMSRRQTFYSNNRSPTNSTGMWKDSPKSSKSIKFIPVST

As a reminder, the pIC50 is the negative decadic logarithm of the IC50, by convention in mol/L. High values mean a low IC50, low ones a high IC50. With `CC(NC(=O)N1CCC(n2c(=O)[nH]c3ccccc32)CC1)c1cccc2ccccc12` (stereo in doubt) [Compound 7], the inhibition at 10 µM was 11% on human V1b receptor (10 μM compound) and 13% on NPY2 receptors. The negative-log IC50 (pIC50) at human V1a receptor is 5.04. Besides, the inhibition at 1 µM on human V2 receptor came out at 31%.

On to `O=c1[nH]c2ccccc2n1C1CCN(C(=S)NC(c2ccccc2)c2ccccc2)CC1` [Compound 1, 1-[(N1-Piperidinocarbothioyldiphenylmethylamino)-4-yl]-1,3-dihydro-benzimidazol-2-one], for which the inhibition at 10 µM on human V1b receptor (10 μM compound) stood at 0%; at NPY2 receptors, 52%. The molecule further had a pIC50 at human V1a receptor of 6.23. Also, the inhibition at 1 µM on human V2 receptor turned out to be 38%.

As to `COc1ccccc1NC(=S)N1CCC(n2c(=O)[nH]c3ccccc32)CC1` [Compound 4, 1-[N1-Piperidinocarbothioyl-(2-methoxyphenyl)amino-4-yl]-1,3-dihydro-benzimidazol-2-one], the “V1b % Inh @10” value at human V1b receptor (10 μM compound) came to 0%@10. Moreover, at NPY2 receptors, the “NPY-2@10, % Inh” value came to 6%. The “V1a@1.0, % Inh” value at human V1a receptor (1.0 μM compound) is 0%. Besides, on human V2 receptor, the “V2@1.0, % Inh” value was determined as 0%.

`COc1cc(NC(=S)N2CCC(n3c(=O)[nH]c4ccccc43)CC2)cc(OC)c1OC` [Compound 6]: the figures for the inhibition at 10 µM on human V1b receptor (10 μM compound) and at NPY2 receptors were 0% and 16%, respectively. Besides, the inhibition at 1 µM at human V1a receptor (1.0 μM compound) came to 20%; on human V2 receptor it was 9%.

In the case of `O=C(NC(=S)N1CCC(n2c(=O)[nH]c3ccccc32)CC1)c1ccccc1` [Compound 8], the inhibition at 10 µM on human V1b receptor (10 μM compound) was 13%; at NPY2 receptors, 5%. For the same molecule, the values for the inhibition at 1 µM at human V1a receptor (1.0 μM compound) and on human V2 receptor were 55% and 10%, respectively.

On to `Cn1c(=O)n(C2CCN(C(=S)NC(c3ccccc3)c3ccccc3)CC2)c2ccccc21` [Compound 10, 3-Methyl-1-[(N1-Piperidinocarbothioyldiphenylmethylamino)-4-yl]-1,3-dihydro-benzimidazol-2-one], for which the inhibition at 10 µM on NPY2 receptors amounted to 34%. The same molecule showed a pIC50 on human V1a receptor of 6.42. Besides, at human V2 receptor, the inhibition at 1 µM is 51%.

With `O=c1[nH]c2ccccc2n1C1CCN(C(=S)NCc2ccccc2)CC1` [Compound 11], the inhibition at 10 µM on human V1b receptor (10 μM compound) was determined as 0%; on NPY2 receptors it was 26%. Further, the negative-log IC50 (pIC50) on human V1a receptor is 5.51. The inhibition at 1 µM on human V2 receptor came out at 3%.

On to `COc1ccccc1CNC(=S)N1CCC(n2c(=O)[nH]c3ccccc32)CC1` [Compound 14], for which the inhibition at 10 µM came to 0% at human V1b receptor (10 μM compound) and 18% at NPY2 receptors. Further, the inhibition at 1 µM on human V1a receptor (1.0 μM compound) was 0%; on human V2 receptor, 1%.

As for `O=c1[nH]c2ccccc2n1C1CCN(C(=S)NCc2cccc3ccccc23)CC1` [Compound 15], the inhibition at 10 µM at human V1b receptor (10 μM compound) was determined as 7%; at NPY2 receptors, 14%. Further, the figures for the inhibition at 1 µM on human V1a receptor (1.0 μM compound) and on human V2 receptor were 17% and 10%, respectively.

Consider `O=c1[nH]c2ccccc2n1C1CCN(C(=S)NCc2ccc3c(c2)OCO3)CC1` [Compound 16], for which the inhibition at 10 µM at human V1b receptor (10 μM compound) and at NPY2 receptors was 15% in each case. Moreover, the results for the inhibition at 1 µM on human V1a receptor (1.0 μM compound) and at human V2 receptor were 40% and 0%, respectively.

For the molecule `O=c1n(CCN2CCOCC2)c2ccccc2n1C1CCN(C(=S)NC(c2ccccc2)c2ccccc2)CC1` [Compound 19, 1-[(N1-Piperidinocarbothioyldiphenylmethylamino)-4-yl]-3-(2-N-morpholinoethyl)-1,3-dihydro-benzimidazol-2-one], the inhibition at 10 µM at NPY2 receptors was 69%. The pIC50 on human V1a receptor was 6.57. The inhibition at 1 µM at human V2 receptor amounted to 42%.

For `CCc1ccc(CCNC(=S)N2CCC(n3c(=O)[nH]c4ccccc43)CC2)cc1` [Compound 21], the inhibition at 10 µM on NPY2 receptors was 13%. The inhibition at 1 µM amounted to 31% on human V1a receptor (1.0 μM compound) and 19% on human V2 receptor.

As for `O=C(O)C(Cc1ccccc1)NC(=S)N1CCC(n2c(=O)[nH]c3ccccc32)CC1` (stereo not drawn) [Compound 41], the inhibition at 10 µM on NPY2 receptors was 11%. Besides, the inhibition at 1 µM was found to be 8% on human V1a receptor (1.0 μM compound) and 0% on human V2 receptor.

Regarding `CN1CCN(C(=O)C(Cc2ccccc2)NC(=S)N2CCC(n3c(=O)[nH]c4ccccc43)CC2)CC1` (stereo not drawn) [Compound 45], at NPY2 receptors, the inhibition at 10 µM worked out at 15%. The inhibition at 1 µM at human V1a receptor (1.0 μM compound) was determined as 54%; on human V2 receptor, 9%.

For the molecule `COC(=O)C(Cc1ccccc1)NC(=S)N1CCC(n2c(=O)n(CCCNC(=O)OCc3ccccc3)c3ccccc32)CC1` (stereo not drawn) [Compound 52], the inhibition at 10 µM on human V1b receptor (10 μM compound) stood at 13%; at NPY2 receptors it was 11%. The pIC50 on human V1a receptor is 6.24.

As for `O=c1n(CCCN2CCCCC2)c2ccccc2n1C1CCN(C(=S)NCc2ccccc2-c2ccccc2)CC1` [Compound 169], the pIC50 was 5.76 at human V1b receptor and 7.92 at human V1a receptor. For the same molecule, the “V2@1.0, % Inh” value at human V2 receptor (1 µM) came out at 4%.

Take `O=c1n(CCCN2CCC(N3CCCCC3)CC2)c2ccccc2n1C1CCN(C(=S)NC(c2ccccc2)c2ccccc2)CC1` [Compound 170]: the pIC50 was 6.17 at human V1b receptor and 7.10 at human V1a receptor. Moreover, the inhibition at 1 µM on human V2 receptor was 6%.

In the case of `Cc1ccc2c(c1)n(CCCN1CCCCC1)c(=O)n2C1CCN(C(=O)NC(c2ccccc2)c2ccccc2)CC1` [Compound 171], the values for the inhibition at 1 µM at human V1b receptor, at human V1a receptor (1.0 μM compound) and on human V2 receptor were 33%, 65% and 2%, respectively.

As to `Cc1ccc2c(c1)n(CCCN1CCCCC1)c(=O)n2C1CCN(C(=S)NC(c2ccccc2)c2ccccc2)CC1` [Compound 172], the figures for the negative-log IC50 (pIC50) on human V1b receptor and at human V1a receptor were 6.15 and 7.14, respectively. The inhibition at 1 µM on human V2 receptor worked out at 6%.

Take `CC(C)(NC(=S)N1CCC(n2c(=O)n(CCCN3CCCCC3)c3ccccc32)CC1)c1ccccc1` [Compound 173]: the inhibition at 1 µM on human V1b receptor is 43%; at human V2 receptor it was 0%. The same molecule gave a pIC50 on human V1a receptor of 6.60.

Consider `O=c1n(CCCN2CCCCC2)c2ccccc2n1C1CCN(C(=S)NCc2ccc(Cl)c(Cl)c2)CC1` [Compound 174], for which the inhibition at 1 µM at human V1b receptor worked out at 34%; on human V2 receptor, 0%. In addition, the negative logarithm of the IC50 (pIC50) on human V1a receptor is 6.38.
